Measured values as given in ChEMBL document CHEMBL1143690, “The effects of N-terminal part modification of arginine vasopressin analogues with 2-aminoindane-2-carboxylic acid: a highly potent V2 agonist” (J Med Chem, 2007).
Activity calls are given as the source filed them. No cut-off for these calls is given here. Positions of bridges follow the written chain, without caps; N, C: chain ends. Non-standard residues stand in square brackets, D forms with d. Residues, ends and D or L forms follow the SMILES beside them. Aic = NC1(C(=O)O)Cc2ccccc2C1

Tests used:
Rattus norvegicus [1] = organism: Rattus norvegicus; assay: Effect on arterial blood pressure in Wistar rat in pressor test; type: functional, organism-based; settings: for Kb: Rattus norvegicus, Wistar, Arterial blood, read-out: pA2 (converted)
Rattus norvegicus [2] = organism: Rattus norvegicus; assay: In vitro uterotonic activity in Wistar rat oxytocic uterus in absence of Mg2+; type: functional; settings: for Kb: read-out: pA2 (converted)
Rattus norvegicus [3] = assay: Antidiuretic activity in sc dosed conscious Wistar rat in an antidiuresis time of t1/2 200 mins relative to AVP; type: functional, Urine
Rattus norvegicus [4] = assay: Antidiuretic activity in sc dosed conscious Wistar rat in an antidiuresis time of t1/2 200 mins relative to dDAVP; type: functional, Urine
Rattus norvegicus [5] = assay: Antidiuretic activity in sc dosed conscious Wistar rat in an antidiuresis time of t1/2 60 mins relative to AVP; type: functional, Urine
Rattus norvegicus [6] = assay: Antidiuretic activity in sc dosed conscious Wistar rat in an antidiuresis time of t1/2 60 mins relative to dDAVP; type: functional, Urine

| SMILES | Kb (Rattus norvegicus [2]) | Activity (Rattus norvegicus [3]) | Activity (Rattus norvegicus [4]) | Activity (Rattus norvegicus [5]) | Activity (Rattus norvegicus [1]) | Activity (Rattus norvegicus [6]) | further results |
| --- | --- | --- | --- | --- | --- | --- | --- |
| NC(=O)CC[C@@H]1NC(=O)[C@H](Cc2ccccc2)NC(=O)C2(Cc3ccccc3C2)NC(=O)CCSSC[C@@H](C(=O)N2CCC[C@H]2C(=O)N[C@H](CCCN=C(N)N)C(=O)NCC(N)=O)NC(=O)[C@H](CC(N)=O)NC1=O [listing 1 of 2 here] | 49 nM | – | – | – | – | – | Kb (Rattus norvegicus [1]): 2510 nM |
| NC(=O)CC[C@@H]1NC(=O)[C@H](Cc2ccccc2)NC(=O)C2(Cc3ccccc3C2)NC(=O)[C@@H](N)CSSC[C@@H](C(=O)N2CCC[C@H]2C(=O)N[C@@H](CCCN=C(N)N)C(=O)NCC(N)=O)NC(=O)[C@H](CC(N)=O)NC1=O [listing 1 of 2 here] | – | 45000 IU/mg | 10% | 450 IU/mg | 9.4 IU/mg | 10% | – |
| CC(C)[C@@H]1NC(=O)[C@H](Cc2ccccc2)NC(=O)C2(Cc3ccccc3C2)NC(=O)[C@@H](N)CSSC[C@@H](C(=O)N2CCC[C@H]2C(=O)N[C@@H](CCCN=C(N)N)C(=O)NCC(N)=O)NC(=O)[C@H](CC(N)=O)NC1=O (H-C[Aic]FVNCPRG-NH2; disulfide 1-6) [listing 1 of 2 here] | – | 45000 IU/mg | 10% | 450 IU/mg | 0 IU/mg | 10% | – |
| NC(=O)CC[C@@H]1NC(=O)[C@H](Cc2ccccc2)NC(=O)C2(Cc3ccccc3C2)NC(=O)[C@@H](N)CSSC[C@@H](C(=O)N2CCC[C@H]2C(=O)N[C@H](CCCN=C(N)N)C(=O)NCC(N)=O)NC(=O)[C@H](CC(N)=O)NC1=O [listing 1 of 2 here] | 138 nM | – | – | – | – | – | – |
| NC(=O)CC[C@@H]1NC(=O)C2(Cc3ccccc3C2)NC(=O)[C@H](Cc2ccc(O)cc2)NC(=O)[C@H](N)CSSC[C@H](C(=O)N2CCC[C@H]2C(=O)N[C@@H](CCCN=C(N)N)C(=O)NCC(N)=O)NC(=O)[C@H](CC(N)=O)NC1=O | – | – | – | – | inactive | – | Activity (Rattus norvegicus [3]; Urine): inactive; Activity (Rattus norvegicus [4]; Urine): inactive; Activity (Rattus norvegicus [5]; Urine): inactive; Activity (Rattus norvegicus [2]): inactive; Activity (Rattus norvegicus [6]; Urine): inactive |
| NC(=O)CC[C@@H]1NC(=O)[C@H](Cc2ccccc2)NC(=O)C2(Cc3ccccc3C2)NC(=O)[C@@H](N)CSSC[C@@H](C(=O)N2CCC[C@H]2C(=O)N[C@@H](CCCN=C(N)N)C(=O)NCC(N)=O)NC(=O)[C@H](CC(N)=O)NC1=O [listing 2 of 2 here] | 53.7 nM | – | – | – | – | – | – |
| CC(C)[C@@H]1NC(=O)[C@H](Cc2ccccc2)NC(=O)C2(Cc3ccccc3C2)NC(=O)CCSSC[C@@H](C(=O)N2CCC[C@H]2C(=O)N[C@H](CCCN=C(N)N)C(=O)NCC(N)=O)NC(=O)[C@H](CC(N)=O)NC1=O [listing 1 of 2 here] | 8.71 nM | – | – | – | – | – | Kb (Rattus norvegicus [1]): 562 nM |
| NC(=O)CC[C@@H]1NC(=O)[C@H](Cc2ccccc2)NC(=O)C2(Cc3ccccc3C2)NC(=O)CCSSC[C@@H](C(=O)N2CCC[C@H]2C(=O)N[C@@H](CCCN=C(N)N)C(=O)NCC(N)=O)NC(=O)[C@H](CC(N)=O)NC1=O [listing 1 of 2 here] | – | 45000 IU/mg | 10% | 450 IU/mg | 5.3 IU/mg | 10% | – |
| CC(C)[C@@H]1NC(=O)[C@H](Cc2ccccc2)NC(=O)C2(CCCCC2)NC(=O)CCSSC[C@@H](C(=O)N2CCC[C@H]2C(=O)N[C@H](CCCN=C(N)N)C(=O)NCC(N)=O)NC(=O)[C@H](CC(N)=O)NC1=O | 15.5 nM | 50000 IU/mg | 10% | 4500 IU/mg | – | 50% | Kb (Rattus norvegicus [1]): 724 nM |
| CC(C)[C@@H]1NC(=O)[C@H](Cc2ccccc2)NC(=O)C2(Cc3ccccc3C2)NC(=O)[C@@H](N)CSSC[C@@H](C(=O)N2CCC[C@H]2C(=O)N[C@@H](CCCN=C(N)N)C(=O)NCC(N)=O)NC(=O)[C@H](CC(N)=O)NC1=O (H-C[Aic]FVNCPRG-NH2; disulfide 1-6) [listing 2 of 2 here] | 11.7 nM | – | – | – | – | – | – |
| CC(C)[C@@H]1NC(=O)[C@H](Cc2ccccc2)NC(=O)C2(Cc3ccccc3C2)NC(=O)CCSSC[C@@H](C(=O)N2CCC[C@H]2C(=O)N[C@H](CCCN=C(N)N)C(=O)NCC(N)=O)NC(=O)[C@H](CC(N)=O)NC1=O [listing 2 of 2 here] | – | 450000 IU/mg | 100% | 4500 IU/mg | – | 50% | – |
| NC(=O)CC[C@@H]1NC(=O)[C@H](Cc2ccccc2)NC(=O)C2(Cc3ccccc3C2)NC(=O)[C@@H](N)CSSC[C@@H](C(=O)N2CCC[C@H]2C(=O)N[C@H](CCCN=C(N)N)C(=O)NCC(N)=O)NC(=O)[C@H](CC(N)=O)NC1=O [listing 2 of 2 here] | – | 4500 IU/mg | 1% | 45 IU/mg | 0 IU/mg | 1% | – |
| NC(=O)CC[C@@H]1NC(=O)[C@H](Cc2ccccc2)NC(=O)C2(Cc3ccccc3C2)NC(=O)CCSSC[C@@H](C(=O)N2CCC[C@H]2C(=O)N[C@H](CCCN=C(N)N)C(=O)NCC(N)=O)NC(=O)[C@H](CC(N)=O)NC1=O [listing 2 of 2 here] | – | 45000 IU/mg | 10% | 450 IU/mg | – | 10% | – |
| NC(=O)CC[C@@H]1NC(=O)[C@H](Cc2ccccc2)NC(=O)C2(Cc3ccccc3C2)NC(=O)CCSSC[C@@H](C(=O)N2CCC[C@H]2C(=O)N[C@@H](CCCN=C(N)N)C(=O)NCC(N)=O)NC(=O)[C@H](CC(N)=O)NC1=O [listing 2 of 2 here] | 31.6 nM | – | – | – | – | – | – |
| NC(=O)CC[C@@H]1NC(=O)C2(Cc3ccccc3C2)NC(=O)[C@H](Cc2ccc(O)cc2)NC(=O)CCSSC[C@H](C(=O)N2CCC[C@H]2C(=O)N[C@@H](CCCN=C(N)N)C(=O)NCC(N)=O)NC(=O)[C@H](CC(N)=O)NC1=O | – | – | – | – | inactive | – | Activity (Rattus norvegicus [3]; Urine): inactive; Activity (Rattus norvegicus [4]; Urine): inactive; Activity (Rattus norvegicus [5]; Urine): inactive; Activity (Rattus norvegicus [2]): inactive; Activity (Rattus norvegicus [6]; Urine): inactive |
| NC(=O)CC[C@@H]1NC(=O)C2(Cc3ccccc3C2)NC(=O)[C@H](Cc2ccc(O)cc2)NC(=O)[C@H](N)CSSC[C@H](C(=O)N2CCC[C@H]2C(=O)N[C@H](CCCN=C(N)N)C(=O)NCC(N)=O)NC(=O)[C@H](CC(N)=O)NC1=O | – | – | – | – | inactive | – | Activity (Rattus norvegicus [3]; Urine): inactive; Activity (Rattus norvegicus [4]; Urine): inactive; Activity (Rattus norvegicus [5]; Urine): inactive; Activity (Rattus norvegicus [2]): inactive; Activity (Rattus norvegicus [6]; Urine): inactive |
